These results are taken from ChEMBL document CHEMBL1128878, “Simple compounds, 2-alkyl-2-amino-1,3-propanediols have potent immunosuppressive activity” (Bioorg Med Chem Lett, 1995).

In general, IC50 refers to the concentration that inhibits the measured activity by half. High values mean lower potency, low ones higher potency.

Series [1] has as its system Rattus norvegicus. As to the kind of experiment: Compound was evaluated in vivo for the immunosuppressive activity on rat skin allograft at ip dose of 0.3 mg/Kg. The format is functional.
The test system of series [2] is Rattus norvegicus. Nature of the series: Compound was evaluated in vivo for the immunosuppressive activity on rat skin allograft at ip dose of 0.03 mg/Kg. The format is functional.
In series [3] the test system is Rattus norvegicus. As to the kind of experiment: Compound was evaluated in vivo for the immunosuppressive activity on rat skin allograft at ip dose of 10 mg/Kg; toxic (animals died). The format is ADME, organism-based.
Series [4] relates to Rattus norvegicus. Nature of the series: Compound was evaluated in vivo for the immunosuppressive activity on rat skin allograft at ip dose of 1 mg/Kg. The format is functional.
For a further series, the species on record is Mus musculus. As to the kind of experiment: Inhibition of mouse allogenic mixed leukocyte response (MLR). The format is functional.
Series [5] deals with Rattus norvegicus. As to the kind of experiment: Compound was evaluated in vivo for the immunosuppressive activity on rat skin allograft at ip dose of 0.1 mg/Kg. The format is functional.
The test system of series [6] is Rattus norvegicus. Nature of the series: Compound was evaluated in vivo for the immunosuppressive activity on rat skin allograft at ip dose of 3 mg/Kg. The format is functional.
The test system of series [7] is Rattus norvegicus. As to the kind of experiment: Compound was evaluated in vivo for the immunosuppressive activity on rat skin allograft at ip dose of 30 mg/Kg. The format is functional.
Series [8] deals with Rattus norvegicus. Nature of the series: Compound was evaluated in vivo for the immunosuppressive activity on rat skin allograft at ip dose of 10 mg/Kg. The format is functional.
Series [9] concerns Rattus norvegicus. Nature of the series: Compound was evaluated in vivo for the immunosuppressive activity on rat skin allograft at ip dose of 1 mg/Kg; toxic (animals died). The format is functional, organism-based.

SMILES strings stand for the structures.

Take `CCCCCCCCCCCCCCCC(N)(CO)CO`: the MST is 33.5 days in the series on Rattus norvegicus [1]; 10.8 days in the series on Rattus norvegicus [2]; “Toxic (animals died)” in the series with Rattus norvegicus [3]; 45.3 days with Rattus norvegicus [4]; 14 days in the series with Rattus norvegicus [5]; 57.8 days in the series with Rattus norvegicus [6]. For the same compound, half-maximal inhibition in the series filed under Mus musculus (IC50) was put at 2.9 nM.

`CCCCCCCCCCCCCCCCCCCCCCC(N)(CO)CO` yielded an IC50 in the series listed under Mus musculus of 1600 nM. As to `CCCCCCC(O)CCCCCC/C=C/C[C@@H](O)[C@H](O)C(N)(CO)CO` (some centres undefined), in the series listed under Mus musculus, the IC50 was 4.7 nM. On the same count and under the same terms, next, `CCCCCCCCC(N)(CO)CO`: 3700 nM.

With `C/C=C/C[C@@H](C)[C@@H](O)[C@H]1C(=O)N[C@@H](CC)C(=O)N(C)CC(=O)N(C)[C@@H](CC(C)C)C(=O)N[C@@H](C(C)C)C(=O)N(C)[C@@H](CC(C)C)C(=O)N[C@@H](C)C(=O)N[C@H](C)C(=O)N(C)[C@@H](CC(C)C)C(=O)N(C)[C@@H](CC(C)C)C(=O)N(C)[C@@H](C(C)C)C(=O)N1C` [CYCLOSPORINE], the MST with Rattus norvegicus [7] is 19.2 days; in the series on Rattus norvegicus [8], 15.2 days; with Rattus norvegicus [4], 7.3 days; in the series with Rattus norvegicus [6] it was 10.8 days. In turn, `CCCCCCCCCCCCCCCC[C@@H](O)[C@H](O)C(N)(CO)CO` registered an IC50 in the series listed under Mus musculus of 320 nM. On the same count and under the same terms, next, `CCCCCCCCCCCCCCC(N)(CO)CO`: 5.9 nM. As for `CCCCCCC(=O)CCCCCC/C=C/C[C@@H](O)[C@H](O)[C@@](N)(CO)C(=O)O` [MYRIOCIN], the MST in the series on Rattus norvegicus [1] was 11.2 days; in the series with Rattus norvegicus [2], 7.8 days; with Rattus norvegicus [9], “Toxic (animals died)”; in the series with Rattus norvegicus [5], 9.2 days. Further, in the series listed under Mus musculus, the IC50 was found to be 3 nM.

`CCCCCCCCCCCCCC(N)(CO)CO` came in with an IC50 in the series listed under Mus musculus of 12 nM. That is a double-digit nanomolar value. On the same count and under the same terms, next, `CCCCCCCCCCCCC(N)(CO)CO`: 270 nM. Still for that read-out and setting: next, `CCCCCCCCCCCCCCCCC(N)(CO)CO`: 10 nM; `CCCCCCCCCCCCCCCCCCCCC(N)(CO)CO`: 190 nM; `CCCCCCCCCCCCC/C=C/C[C@@H](O)[C@H](O)C(N)(CO)CO`: 56 nM. For `CCCCCCC(O)CCCCCCCCC[C@@H](O)[C@H](O)C(N)(CO)CO` (some centres undefined), half-maximal inhibition in the series listed under Mus musculus (IC50) required 1630 nM. Still for that read-out and setting: to `CCCCCCCCCCCCCCCCCCC(N)C(=O)O` (centres undefined) belongs 130 nM.

In the series filed under Mus musculus, `CCCCCCCCCCC(N)(CO)CO` had an IC50 of 440 nM.
